What all share (experiment): inhibition of tumour cell growth, NCI panel, 48 h
Experiment [1] concerns A549 NSCLC.
Experiment [2] relates to ACHN renal.
The subject of experiment [3] is COLO 205 colon.
Experiment [4] concerns HOP-62 NSCLC.
Experiment [5] concerns MDA-MB-231 breast.
In experiment [6] the test system is MDA-MB-435.
Experiment [7] has as its system MDA-N.
Experiment [8] concerns RPMI-8226 leukemia.
Experiment [9] relates to U251 CNS.
Experiment [10] has as its system UO-31 renal.

Each structure is given as a SMILES string.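 Results reflect a 48-hour exposure of cells in 96-well plates to compound at five concentrations. TGI marks complete inhibition of growth.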

Take `O=C(N/N=C\c1ccccc1)Nc1cccc2ccccc12`: the TGI in experiment [1] is above 100 µM; in experiment [2] it was 39 µM; in experiment [3] it was above 100 µM; in experiment [4] it was 37.2 µM; in experiment [5] it was above 100 µM; in experiment [6] it was above 100 µM. For the same compound, the TGI in experiment [7], in experiment [8], in experiment [9] and in experiment [10] was above 100 µM in each case.

On to `COC(=O)c1ccccc1C1CN=NC12Cc1cccc(C)c1C2=O` (stereo not drawn), for which the TGI in experiment [1], in [2], in experiment [4], in experiment [5], in experiment [6] and in [7] was above 100 µM throughout. Further, the TGI in experiment [8] was above 100 µM; in [9], above 100 µM; in experiment [10], 83.9 µM.

On to `CSc1nc2c(=O)n(-c3ccccc3)c(=S)n(-c3ccccc3)c2s1`, for which the TGI in [1], in [2], in [3], in experiment [4], in experiment [5] and in [6] was above 100 µM in each case. Also, the TGI in experiment [7], in [8], in experiment [9] and in [10] was above 100 µM throughout.

For `Nc1ccc(Oc2ccc(C34CC5CC6C3CC3CC4C(C5)C6(c4ccc(Oc5ccc(N)c(O)c5)cc4)C3)cc2)cc1O`, the TGI in [1] is 12.9 µM; in [2], 14.3 µM; in experiment [3], 2.85 µM; in [4], 18.3 µM; in experiment [5], 14.9 µM; in experiment [6] it was 29.3 µM. Also, the TGI is 14.8 µM in [7], 7.94 µM in [8], 13.6 µM in [9] and 11.2 µM in [10].

With `CC(=O)NC(Cc1ccc(OP(=O)(OCc2ccc([N+](=O)[O-])o2)N(C)CCCCCl)cc1)C(=O)NC(C)c1ccc(OCC2CCCCC2)c(C(N)=O)c1` (stereo not drawn), the TGI in [1] came to 18.2 µM; in experiment [2], 33.4 µM; in experiment [3], 3.68 µM; in experiment [4] it was 23.7 µM; in experiment [5], 4.79 µM; in experiment [6], 4.81 µM. The TGI in [7] is 5.22 µM; in [8], 3.96 µM; in experiment [9], 6.49 µM; in experiment [10], 45.2 µM.

On to `CC12CCC(C(Nc3ccccn3)C1=O)C2(C)C` (stereo not drawn), for which the TGI in experiment [1], in experiment [2], in [3], in experiment [4], in experiment [5] and in experiment [6] was above 100 µM throughout. In addition, the TGI in experiment [7], in experiment [8], in experiment [9] and in [10] was above 100 µM in each case.

As to `COc1cc2c(cc1OC)-c1cc3cc(OC)c(OC)cc3c(=O)n1CC2`, the TGI in [1] was above 100 µM; in experiment [2], above 86 µM; in [3], above 100 µM; in experiment [4], above 72.8 µM; in experiment [5], above 70.4 µM; in [6], above 100 µM. The TGI in experiment [7] is above 100 µM; in [8], 47.2 µM; in experiment [9], above 100 µM; in experiment [10], 13.2 µM.

For `CC(C)(C)[C@H]1CCC2(OCCO2)[C@](O)(CCCO)C1`, the TGI in experiment [1], in [2], in experiment [3], in experiment [4], in experiment [5] and in [6] was above 100 µM in each case. Besides, the TGI in [7], in experiment [8], in [9] and in [10] was above 100 µM each time.

Regarding `C[C@]1(O)O[C@@H]2OCC[C@@H]2C2=C1C(=O)c1ccccc1C2=O`, the TGI worked out at 35.2 µM in [1]; 31.7 µM in experiment [2]; 53.9 µM in experiment [3]; 26.7 µM in [4]; 49.3 µM in [5]; 19.5 µM in [6]. Moreover, the TGI in [7] came out at 19.1 µM; in experiment [8], 20.9 µM; in [9], 29.8 µM; in experiment [10], 31.8 µM.

Take `N#Cc1nc(CCC(c2nc(C#N)c(N)o2)N2C(=O)c3ccccc3C2=O)oc1N` (stereo not drawn): the TGI in experiment [1], in experiment [2], in experiment [3], in experiment [4], in experiment [5] and in experiment [6] was above 100 µM in each case. Moreover, the TGI in experiment [7], in experiment [8], in [9] and in experiment [10] was above 100 µM in each case.

As for `O=C1C(NCCN2CCOCC2)=C(Cl)C(=O)c2ncccc21`, the TGI in experiment [1] stood at 3.36 µM; in experiment [2], 2.31 µM; in experiment [4] it was 3.63 µM; in experiment [5], 4.71 µM; in experiment [6], 0.343 µM; in experiment [7], 0.346 µM. In addition, the results for the TGI in [8], in experiment [9] and in [10] were 0.377 µM, 2.23 µM and 2.33 µM, respectively.

For the compound `Cc1ccc(C(=O)Nc2ccc(S(=O)(=O)O)c3cc(S(=O)(=O)O)cc(S(=O)(=O)O)c23)cc1NC(=O)c1cccc(NC(=O)Nc2cccc(C(=O)Nc3cc(C(=O)Nc4ccc(S(=O)(=O)O)c5cc(S(=O)(=O)O)cc(S(=O)(=O)O)c45)ccc3C)c2)c1` (tested in a mixture with another compound), the TGI in experiment [1], in [2], in [3], in [5], in [6] and in experiment [7] was above 50 µM throughout. The TGI in experiment [8], in experiment [9] and in [10] was above 50 µM each time.

Consider `O=C1ON=C2C3CC4CC12CC1(C3)C(=O)ON=C41`, for which the TGI in experiment [1], in experiment [2], in experiment [3], in [4], in experiment [5] and in [6] was above 100 µM throughout. Moreover, the TGI in experiment [7], in [8], in [9] and in [10] was above 100 µM in each case.

Regarding `CCN1CCC(O)(c2ccc(Oc3ccc(C)cc3)cc2)C(C(=O)c2ccc(Oc3ccc(C)cc3)cc2)C1` (stereo not drawn), the TGI in experiment [1] was determined as 26.8 µM; in experiment [2] it was 25.9 µM; in experiment [3], 26.1 µM; in [4], 35.5 µM; in experiment [5] it was 20.4 µM; in experiment [6], 24.9 µM. In addition, the TGI in experiment [7] was 22.6 µM; in [8] it was 4.26 µM; in [9] it was 23.7 µM; in [10], 20.6 µM.

As for `c1ccc(N=C2SC3=NCCN3C2=Nc2ccccc2)cc1`, the TGI in experiment [3] turned out to be 33.3 µM; in experiment [4], 52.9 µM; in experiment [5], 60.5 µM; in experiment [6], 43 µM; in [7], 41.2 µM; in [8], 83.8 µM. The TGI stood at 33.5 µM in experiment [9] and 26.4 µM in experiment [10].

As for `CC1(CC2=C(C(=O)NCCO[Si](C)(C)C(C)(C)C)C3(OCCO3)C2=O)OCCO1`, the TGI in [1], in experiment [2], in experiment [3], in experiment [4], in experiment [5] and in [6] was above 100 µM each time. Also, the TGI in experiment [7], in experiment [9] and in experiment [10] was above 100 µM in each case.

As for `CCOC(=O)CSc1[nH]c(NC(=S)Nc2ccccc2)c(C(N)=O)c1C(N)=O`, the TGI in experiment [1], in experiment [3], in experiment [4], in [5], in [6] and in experiment [7] was above 10 µM each time. In experiment [8], this compound registered a TGI above 10 µM.

Take `Oc1ccc(O)c(CNc2ccccc2)c1`: the TGI was above 100 µM in experiment [1]; 25.5 µM in experiment [2]; 37.4 µM in experiment [3]; 38.4 µM in experiment [5]; 29.4 µM in experiment [6]; 16.6 µM in experiment [7]. Also, the TGI in [8] stood at 3.14 µM; in experiment [9], 44.2 µM; in experiment [10] it was 27 µM.

As to `N=c1c2c(=S)n(-c3ccccc3)c(=S)n(-c3ccccc3)c2nc(SCCN2CCOCC2)n1-c1ccccc1`, the TGI worked out at 3.36 µM in experiment [1]; 3.5 µM in [2]; 3.66 µM in experiment [3]; 4.96 µM in experiment [4]; 4.73 µM in [5]; 3.4 µM in experiment [6]. Besides, the TGI in [7] was found to be 4.99 µM; in experiment [8], 3.97 µM; in [9], 3.93 µM.

Consider `C=C(C)[C@@H]1CCC2=C[C@H](CC(C)=CC3=CC(C)=C(O3)[C@@H]1OC)OC2=O`, for which the TGI in [1] was above 100 µM; in [2], above 100 µM; in experiment [3], above 100 µM; in experiment [5] it was 87.3 µM; in experiment [6], above 100 µM; in experiment [7], above 100 µM. Also, the TGI in experiment [8], in experiment [9] and in [10] was above 100 µM in each case.

Values taken from PubChem BioAssay (NCI).
